# Patent US20240425491A1, “HETEROARYL COMPOUNDS USEFUL IN THE TREATMENT OF COGNITIVE DISORDERS” (University College Cardiff Consultants Limited, priority 2021, published 2024)
# Biological target: T1, human recombinant GABAAR containing α5β3γ2 subunits (benzodiazepine site) (Homo sapiens, UniProt P18507+P31644)
# T1 construct: expressed in transfected cells; host or cells: mouse L(tk−) cells, dexamethasone-inducible vector pMSGneo
# Assay: In vitro radioligand binding assay (α5-GABAAR Ki)
# Settings: not given
# Source text: Mouse L(tk^−) cells stably expressing human α1β3γ2, α2β3γ2, α3β3γ2, α5β3γ2 GABAARs generated by transfection of the individual subunits in the dexamethasone-inducible expression vector pMSGneo in mouse L(tk^−) cells (Hadingham et al., 1993, Mol. Pharmacol. 43:970-975 and 1993, Mol. Pharmacol. 44:1211-1218) were used for binding and functional assays. For certain compounds, HEK293 cells stable expressing the human α1β3γ2L, α2β3γ2L, α3β3γ2L and α5β3γ2L GABAA receptors were used to evaluate their functional effects in a SyncroPatch electrophysiology assay.
# L(tk^−) cells stably expressing human α1β3γ2, α2β3γ2, α3β3γ2, α5β3γ2 GABAARs were maintained in DMEM F12 medium supplemented with 10% Foetal Bovine Serum, 1% Penicillin/Streptomycin and 1 mg/mL Geneticin G418 in an incubator at 37° C. with a humidified atmosphere with 5% CO2.
# The affinity (Ki) of compounds for the benzodiazepine site of human recombinant GABAARs was measured by their ability to inhibit the binding of the selective benzodiazepine antagonist [^3H] Ro15-1788 ([^3H] flumazenil).
# L(tk^−) cells expressing human recombinant GABAAR containing α1β3γ2, α2β3γ2, α3β3γ2, α5β3γ2 subunits were harvested and membranes were prepared for each receptor combination in phosphate buffer (K2PO4 10 mM, pH 7.0) (Hadingham et al. (1992) Proc. Natl. Acad. Sci. USA; 89 (14): 6378-82). Protein concentration, receptor expression and the Kd of [^3H] Ro15-1788 were determined before Ki values of compounds were evaluated. For Kd evaluation, saturation binding curves were obtained by incubating membrane with various concentrations of [^3H] Ro15-1788 (82.5 Ci/mM), with nonspecific binding measured in the presence of 1 μM TP003.
# For Ki evaluation, cell membranes were incubated with 4 nM [^3H] Ro15-1788 along with a range of concentrations of test compound. Nonspecific binding was determined using 1 μM TP003. All incubations were performed for 1 hour at 4° C. in assay buffer. The total assay volume was 0.5 mL, containing 100 μg membrane protein/well α1β3γ2, α2β3γ2, α3β3γ2 and 50 μg membrane protein/well for α53γ2. Incubations were terminated by filtration and washing with ice cold Tris-HCl buffer (50 mM, pH=7.4) over Whatman GF/B filters and the radioactivity of the filters was measured using liquid scintillation counting.
# The % inhibition of [^3H] Ro15-1788 binding was plotted as a function of compound concentration and the IC50 calculated. From the IC50, the affinity (Ki) was calculated using the method of Cheng and Prusoff using the Kd values obtained for [^3H] Ro15-1788.
# T1 sequence (P31644 32-462): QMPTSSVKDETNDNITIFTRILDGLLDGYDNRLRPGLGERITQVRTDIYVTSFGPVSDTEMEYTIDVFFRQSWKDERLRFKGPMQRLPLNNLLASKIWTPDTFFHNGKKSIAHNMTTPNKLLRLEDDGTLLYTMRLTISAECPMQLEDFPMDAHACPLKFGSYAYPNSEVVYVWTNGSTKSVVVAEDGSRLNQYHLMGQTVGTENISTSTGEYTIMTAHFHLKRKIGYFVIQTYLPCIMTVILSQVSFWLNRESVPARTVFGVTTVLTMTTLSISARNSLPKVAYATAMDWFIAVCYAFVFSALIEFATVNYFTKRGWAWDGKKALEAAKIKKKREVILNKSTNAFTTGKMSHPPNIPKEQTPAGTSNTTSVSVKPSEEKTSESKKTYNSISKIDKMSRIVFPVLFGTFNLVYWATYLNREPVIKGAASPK
# T1 sequence (P28472 26-473 partner): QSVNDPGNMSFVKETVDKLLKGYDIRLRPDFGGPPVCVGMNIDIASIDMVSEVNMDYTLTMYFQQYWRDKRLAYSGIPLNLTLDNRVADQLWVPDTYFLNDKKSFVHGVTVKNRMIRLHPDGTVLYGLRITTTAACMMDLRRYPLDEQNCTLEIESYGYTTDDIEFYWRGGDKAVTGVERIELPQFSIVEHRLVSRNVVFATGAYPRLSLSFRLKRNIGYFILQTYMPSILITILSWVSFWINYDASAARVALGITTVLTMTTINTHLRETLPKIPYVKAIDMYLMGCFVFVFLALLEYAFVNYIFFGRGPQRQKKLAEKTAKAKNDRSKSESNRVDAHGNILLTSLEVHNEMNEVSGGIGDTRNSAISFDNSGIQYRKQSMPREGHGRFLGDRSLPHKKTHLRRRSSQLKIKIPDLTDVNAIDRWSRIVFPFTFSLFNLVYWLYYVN
# T1 sequence (P18507 40-475): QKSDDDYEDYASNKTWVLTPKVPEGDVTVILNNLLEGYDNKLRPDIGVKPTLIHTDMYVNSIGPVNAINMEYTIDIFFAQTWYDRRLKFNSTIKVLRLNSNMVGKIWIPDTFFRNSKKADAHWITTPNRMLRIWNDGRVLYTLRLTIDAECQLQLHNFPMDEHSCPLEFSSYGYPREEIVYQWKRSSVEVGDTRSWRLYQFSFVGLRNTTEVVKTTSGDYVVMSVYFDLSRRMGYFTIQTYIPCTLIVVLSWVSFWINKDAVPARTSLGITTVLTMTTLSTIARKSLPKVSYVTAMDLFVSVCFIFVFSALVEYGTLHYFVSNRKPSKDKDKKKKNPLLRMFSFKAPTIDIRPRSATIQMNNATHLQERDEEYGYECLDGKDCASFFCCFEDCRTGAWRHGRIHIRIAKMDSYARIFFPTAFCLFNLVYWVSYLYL
row,SMILES,Ki [nM]
1,"COc1cc2c(-c3ccc(NC(=O)c4c(-c5ccccc5)noc4C)c(OC)n3)cn(C)c2cn1 [Example 109, N-(2-Methoxy-6-(5-methoxy-1-methyl-1H-pyrrolo[2,3-c]pyridin-3-yl)pyridin-3-yl)-5-methyl-3-phenylisoxazole-4-carboxamide]",47.2

# Same assay, conditions: inhibition of [3H]Ro15-1788 binding, membranes of L(tk−) cells expressing human α5β3γ2; read-out: α5-GABAAR Ki
row,Ki [nM],SMILES
1,104,"COc1nc(-c2cccc([N+](=O)[O-])c2)ccc1NC(=O)c1c(-c2ccccc2)noc1C [Example 8, N-[2-Methoxy-6-(3-nitrophenyl)-3-pyridyl]-5-methyl-3-phenyl-isoxazole-4-carboxamide]"
2,403,"COc1nc(-c2cccc(N(C)C)c2)ccc1NC(=O)c1c(-c2ccccc2)noc1C [Example 16, N-[6-[3-(Dimethylamino)phenyl]-2-methoxy-3-pyridyl]-5-methyl-3-phenyl-isoxazole-4-carboxamide]"
3,110,"COc1nc(-c2cc(OC)c3cn[nH]c3c2)ccc1NC(=O)c1c(-c2ccccc2)noc1C [Example 32, N-[2-Methoxy-6-(4-methoxy-1H-indazol-6-yl)-3-pyridyl]-5-methyl-3-phenyl-isoxazole-4-carboxamide]"
4,115,"COc1nc(-c2ccc3cn[nH]c3c2)ccc1NC(=O)c1c(-c2ccccc2)noc1C [Example 34, N-[6-(1H-Indazol-6-yl)-2-methoxy-3-pyridyl]-5-methyl-3-phenyl-isoxazole-4-carboxamide]"
5,27.2,"COc1nc(-c2ccc3c(N)n[nH]c3c2)ccc1NC(=O)c1c(-c2ccccc2)noc1C [Example 35, N-[6-(3-Amino-1H-indazol-6-yl)-2-methoxy-3-pyridyl]-5-methyl-3-phenyl-isoxazole-4-carboxamide]"
6,21.9,"COc1nc(-c2cccnn2)ccc1NC(=O)c1c(-c2ccccc2)noc1C [Example 64, N-(2-Methoxy-6-pyridazin-3-yl-3-pyridyl)-5-methyl-3-phenyl-isoxazole-4-carboxamide]"
7,49,"COc1nc(-c2ccncn2)ccc1NC(=O)c1c(-c2ccccc2)noc1C [Example 65, N-(2-Methoxy-6-pyrimidin-4-yl-3-pyridyl)-5-methyl-3-phenyl-isoxazole-4-carboxamide]"
8,232,"COc1nc(-c2ccsn2)ccc1NC(=O)c1c(-c2ccccc2)noc1C [Example 69, N-(6-Isothiazol-3-yl-2-methoxy-3-pyridyl)-5-methyl-3-phenyl-isoxazole-4-carboxamide]"
9,154,"COc1nc(-c2ccccn2)ccc1NC(=O)c1c(-c2ccccc2)noc1C [Example 73, N-[2-Methoxy-6-(2-pyridyl)-3-pyridyl]-5-methyl-3-phenyl-isoxazole-4-carboxamide]"
10,113,"COc1nc(-c2c[nH]c3ncccc23)ccc1NC(=O)c1c(-c2ccccc2)noc1C [Example 105, N-(2-Methoxy-6-(1H-pyrrolo[2,3-b]pyridin-3-yl)pyridin-3-yl)-5-methyl-3-phenylisoxazole-4-carboxamide]"
11,41.7,"COc1nc(-c2cnccn2)ccc1NC(=O)c1c(-c2ccccc2)noc1C [Example 113, N-(2-Methoxy-6-(pyrazin-2-yl)pyridin-3-yl)-5-methyl-3-phenylisoxazole-4-carboxamide]"
12,2.9,"COc1nc(-c2c[nH]c(=O)c(F)c2)ccc1NC(=O)c1c(-c2ccccc2)noc1C [Example 116, N-(5′-Fluoro-6-methoxy-6′-oxo-1′,6′-dihydro-[2,3′-bipyridin]-5-yl)-5-methyl-3-phenylisoxazole-4-carboxamide]"

# More lines, now with the values behind:
row,SMILES,Ki [nM]
1,"COc1ncc(-c2ccc(NC(=O)c3c(-c4ccccc4)noc3C)c(OC)n2)s1 [Example 10, N-[2-Methoxy-6-(2-methoxythiazol-5-yl)-3-pyridyl]-5-methyl-3-phenyl-isoxazole-4-carboxamide]",72.9
2,"COc1nc(-c2ccncc2C)ccc1NC(=O)c1c(-c2ccccc2)noc1C [Example 24, N-[2-Methoxy-6-(3-methyl-4-pyridyl)-3-pyridyl]-5-methyl-3-phenyl-isoxazole-4-carboxamide]",162
3,"COc1nc(-c2c(C)n[nH]c2C)ccc1NC(=O)c1c(-c2ccccc2)noc1C [Example 25, N-[6-(3,5-Dimethyl-1H-pyrazol-4-yl)-2-methoxy-3-pyridyl]-5-methyl-3-phenyl-isoxazole-4-carboxamide]",34.2
4,"COc1cc(-c2c(C)n[nH]c2C)cnc1NC(=O)c1c(-c2ccccc2)noc1C [Example 31, N-[5-(3,5-Dimethyl-1H-pyrazol-4-yl)-3-methoxy-2-pyridyl]-5-methyl-3-phenyl-isoxazole-4-carboxamide]",69.1
5,"COc1nc(-c2cnc(Cl)nc2)ccc1NC(=O)c1c(-c2ccccc2)noc1C [Example 36, N-[6-(2-Chloropyrimidin-5-yl)-2-methoxy-3-pyridyl]-5-methyl-3-phenyl-isoxazole-4-carboxamide]",2
6,"COc1nc(-c2nccn3ccnc23)ccc1NC(=O)c1c(-c2ccccc2)noc1C [Example 38, N-(6-Imidazo[1,2-a]pyrazin-8-yl-2-methoxy-3-pyridyl)-5-methyl-3-phenyl-isoxazole-4-carboxamide]",57.6
7,"COc1nc(-c2cnc(N)c(OC)n2)ccc1NC(=O)c1c(-c2ccccc2)noc1C [Example 39, N-[6-(5-Amino-6-methoxy-pyrazin-2-yl)-2-methoxy-3-pyridyl]-5-methyl-3-phenyl-isoxazole-4-carboxamide]",32.3
8,"COc1nc(-c2ncn(C)n2)ccc1NC(=O)c1c(-c2ccccc2)noc1C [Example 51, N-[2-Methoxy-6-(1-methyl-1,2,4-triazol-3-yl)-3-pyridyl]-5-methyl-3-phenyl-isoxazole-4-carboxamide]",20.5
9,"COc1nc(-c2ncccn2)ccc1NC(=O)c1c(-c2ccccc2)noc1C [Example 63, N-(2-Methoxy-6-pyrimidin-2-yl-3-pyridyl)-5-methyl-3-phenyl-isoxazole-4-carboxamide]",32.6
10,"COc1nc(-c2nccs2)ccc1NC(=O)c1c(-c2ccccc2)noc1C [Example 66, N-(2-Methoxy-6-thiazol-2-yl-3-pyridyl)-5-methyl-3-phenyl-isoxazole-4-carboxamide]",236
11,"COc1nc(-c2ccc(SC(F)(F)F)nc2)ccc1NC(=O)c1c(-c2ccccc2)noc1C [Example 76, N-(6-Methoxy-6′-((trifluoromethyl)thio)-[2,3′-bipyridin]-5-yl)-5-methyl-3-phenyl-isoxazole-4-carboxamide]",297
12,"COc1nc(-c2ccc(OC(F)F)nc2)ccc1NC(=O)c1c(-c2ccccc2)noc1C [Example 88, N-(6′-(Difluoromethoxy)-6-methoxy-[2,3′-bipyridin]-5-yl)-5-methyl-3-phenyl-isoxazole-4-carboxamide]",26.6
13,"COc1nc(-c2cnc(N(C)C)c(Cl)c2)ccc1NC(=O)c1c(-c2ccccc2)noc1C [Example 98, N-(5′-Chloro-6′-(dimethylamino)-6-methoxy-[2,3′-bipyridin]-5-yl)-5-methyl-3-phenylisoxazole-4-carboxamide]",664
14,"COc1nc(-c2nnn(C)c2C)ccc1NC(=O)c1c(-c2ccccc2)noc1C [Example 101, N-(6-(1,5-Dimethyl-1H-1,2,3-triazol-4-yl)-2-methoxypyridin-3-yl)-5-methyl-3-phenylisoxazole-4-carboxamide]",45.1
15,"COc1nc(-c2cnn3cccnc23)ccc1NC(=O)c1c(-c2ccccc2)noc1C [Example 112, N-(2-Methoxy-6-(pyrazolo[1,5-a]pyrimidin-3-yl)pyridin-3-yl)-5-methyl-3-phenylisoxazole-4-carboxamide]",80.6
16,"COc1nc(-c2cnc3c(c2)CC(=O)N3)ccc1NC(=O)c1c(-c2ccccc2)noc1C [Example 114, N-(2-Methoxy-6-(2-oxo-2,3-dihydro-1H-pyrrolo[2,3-b]pyridin-5-yl)pyridin-3-yl)-5-methyl-3-phenylisoxazole-4-carboxamide]",6.3
17,"COc1nc(-c2cn(-c3nccs3)nc2C)ccc1NC(=O)c1c(-c2ccccc2)noc1C [Example 115, N-(2-Methoxy-6-(3-methyl-1-(thiazol-2-yl)-1H-pyrazol-4-yl)pyridin-3-yl)-5-methyl-3-phenylisoxazole-4-carboxamide]",99.8
